Measured values published in ChEMBL document CHEMBL1201862, “PubChem BioAssay data set” (2004).
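Exposure lasted 48 hours, with cells grown in 96-well plates and compounds tested at five concentrations. At the GI50, growth is halved.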 Active and inactive are the calls of the source. Cut-off read from the data, not from the text of the source: active = GI50 up to about 1.1 µM and inactive = higher.

Experiments:
Assay in all cases: growth of human tumour cells (NCI), 48 h
DLD-1 = tested on: DLD-1
DMS-114 = tested on: DMS-114
DMS-273 = tested on: DMS-273
LXFL 529 = tested on: LXFL 529
M19-MEL = tested on: M19-MEL
RXF 631 = tested on: RXF 631
SNB-78 = tested on: SNB-78
XF498 = tested on: XF498
HOP-18 = tested on: HOP-18

SMILES | GI50 (DLD-1) | GI50 (DMS-114) | GI50 (DMS-273) | GI50 (LXFL 529) | GI50 (M19-MEL) | GI50 (RXF 631) | GI50 (SNB-78) | GI50 (XF498) | GI50 (HOP-18)
COC(=O)C(Cc1c[nH]c2ccccc12)NC(=O)C(Cc1c[nH]c2ccccc12)NC(=O)OCc1ccccc1 (stereo unspecified) | 18.5 µM (inactive) | 19.4 µM (inactive) | 16 µM (inactive) | 16.7 µM (inactive) | 18.4 µM (inactive) | 24 µM (inactive) | 25.8 µM (inactive) | 14.8 µM (inactive) | 
O=C(CCC(=O)C(C(=O)c1ccccc1)c1ccccc1)Nc1cccc(C(F)(F)F)c1 (stereo unspecified) | > 100 µM (inactive) | > 100 µM (inactive) | > 100 µM (inactive) | > 100 µM (inactive) | > 100 µM (inactive) |  | > 100 µM (inactive) | > 100 µM (inactive) | > 100 µM (inactive)
COCOCc1cc(OCc2ccccc2)c(OC)cc1Br | > 100 µM (inactive) |  | 64.6 µM (inactive) |  | > 100 µM (inactive) |  | > 100 µM (inactive) | > 100 µM (inactive) | > 100 µM (inactive)
O=c1[nH]c2c(c3ccccc13)CCc1ccccc1-2 |  | > 100 µM (inactive) | > 100 µM (inactive) | > 100 µM (inactive) | > 100 µM (inactive) |  | > 100 µM (inactive) |  | 
O=C(NCC#CCO)C(F)(F)F | > 100 µM (inactive) | > 100 µM (inactive) | > 100 µM (inactive) |  |  | > 100 µM (inactive) | > 100 µM (inactive) | > 100 µM (inactive) | 
COc1ccc(-c2onc(-c3ccc([N+](=O)[O-])cc3)c2C2=NCCN2)cc1 | 74.1 µM (inactive) |  |  | 35.5 µM (inactive) | > 100 µM (inactive) |  | 67.3 µM (inactive) | 66.7 µM (inactive) | 87.5 µM (inactive)
N#CC(C#N)=c1c2nsnc2c(=C(C#N)C#N)c2nsnc12 | 2.03 µM (inactive) | 1.91 µM (inactive) | 1.57 µM (inactive) | 1.63 µM (inactive) |  |  | 1.74 µM (inactive) |  | 2.66 µM (inactive)
CCCCCCCCCCCCCCCCCCNC(=O)OCC(CNS(=O)(=O)CCC[n+]1cccc2ccccc21)COC (stereo unspecified) | 2.85 µM (inactive) | 1.18 µM (inactive) | 0.251 µM (active) | 1.21 µM (inactive) | 1.2 µM (inactive) |  | 1.23 µM (inactive) | 1.43 µM (inactive) | 3.32 µM (inactive)
Cc1nc2c(N)ncnc2o1 | > 100 µM (inactive) | > 100 µM (inactive) | > 100 µM (inactive) | > 100 µM (inactive) | > 100 µM (inactive) | > 100 µM (inactive) | > 100 µM (inactive) |  | > 100 µM (inactive)
COc1c2c(cc3c1C(=O)Cc1ccc4c(c1CN(C)CC3)OCO4)OCO2 | > 100 µM (inactive) | 39.4 µM (inactive) |  |  | > 100 µM (inactive) | 44.8 µM (inactive) | > 100 µM (inactive) |  | 20.7 µM (inactive)
COc1ccc2c(C(=O)O)cc3ccccc3c2c1OC | 30.9 µM (inactive) | 17.7 µM (inactive) | 23.5 µM (inactive) | 17.1 µM (inactive) | 21.3 µM (inactive) |  | 16.9 µM (inactive) | 15.8 µM (inactive) | 15.5 µM (inactive)
O=[N+]([O-])C(=C(c1ccccc1)c1ccccc1)[N+](=O)[O-] | 3.46 µM (inactive) | 18.7 µM (inactive) | 4.53 µM (inactive) | 15.6 µM (inactive) |  |  | > 10 µM (inactive) |  | 
CN/N=C(\C)CC(=O)Nc1cccc(Cl)c1C | > 100 µM (inactive) | > 100 µM (inactive) | 53.7 µM (inactive) | > 100 µM (inactive) | > 100 µM (inactive) | > 100 µM (inactive) | > 100 µM (inactive) | > 100 µM (inactive) | > 100 µM (inactive)
O=C(O)c1cc2sc(C(=O)O)cc2s1 | > 100 µM (inactive) | > 100 µM (inactive) | > 100 µM (inactive) | > 100 µM (inactive) | > 100 µM (inactive) |  | > 100 µM (inactive) | > 100 µM (inactive) | 
O=c1oc2ccccc2n1P(=O)(n1c(=O)oc2ccccc21)n1c(=O)oc2ccccc21 | > 100 µM (inactive) | > 100 µM (inactive) | > 100 µM (inactive) | > 100 µM (inactive) | 60.3 µM (inactive) | > 100 µM (inactive) | > 100 µM (inactive) | > 100 µM (inactive) | 
CC[C@](C)(O)C(=O)O[C@H]1C(=O)O[C@@H]2C[C@H]3C(C)=C[C@H](O)[C@@H](O)[C@]3(C)[C@H]3[C@@]4(O)OC[C@]32[C@@H]1[C@@H](C)[C@H]4O | 6.11 µM (inactive) | 3.68 µM (inactive) | 17.9 µM (inactive) |  | 11 µM (inactive) |  | 29.2 µM (inactive) | 11.9 µM (inactive) | 59.7 µM (inactive)
